The results in this text go back to ChEMBL document CHEMBL1201862, “PubChem BioAssay data set” (2004).

Test systems include SK-MEL-5; UACC-257; UO-31; NCI-H23; MDA-MB-231; MOLT-4; A549; U-251; 786-0; RXF 393; NCI-H226; COLO 205; NCI/ADR-RES; SN12C; HOP-62; SF-539; SNB-75; HOP-92; SK-MEL-28; NCI-H522.
Assay in all cases: NCI-60 cell line screen, 48 h

Molecules are shown by their SMILES.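 Following 48 hours of exposure in 96-well plates, responses at five concentrations were used to interpolate endpoints linearly. GI50 = concentration required for 50% inhibition of growth.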 Activity calls are given as the source filed them. No stated cut-off is given here; in the data, active = GI50 up to about 1.1 µM and inactive = higher. Some results are limits rather than exact numbers.

Regarding `COc1ccc(-c2nc(O)c3ccccc3n2)cc1OC`, the GI50 is > 100 µM (inactive) in the experiment with SK-MEL-5; > 100 µM (inactive) with UACC-257; > 100 µM (inactive) in the experiment on UO-31; > 100 µM (inactive) in the experiment with NCI-H23; 24.4 µM (inactive) in the experiment on MDA-MB-231; > 100 µM (inactive) in the experiment with MOLT-4. For the same compound, the GI50 is 94.4 µM (inactive) in the experiment with A549; 23.1 µM (inactive) in the experiment on U-251; 36.1 µM (inactive) in the experiment with 786-0; 26.4 µM (inactive) in the experiment on RXF 393; 18.4 µM (inactive) in the experiment with NCI-H226; > 100 µM (inactive) in the experiment with COLO 205. Further, the GI50 in the experiment with NCI/ADR-RES is 28.2 µM (inactive); in the experiment with SN12C it was 26.5 µM (inactive); in the experiment on HOP-62 it was 33.8 µM (inactive); with SF-539, 37.8 µM (inactive); in the experiment with SNB-75 it was 23.8 µM (inactive).

Regarding `Cc1c(C(=O)OCc2ccccc2)[n+]([O-])c2ccccc2[n+]1[O-]`, the GI50 with SK-MEL-5 was 22 µM (inactive); in the experiment with UACC-257, 17.8 µM (inactive); with HOP-92, 0.22 µM (active); in the experiment with UO-31, 27.8 µM (inactive); in the experiment on NCI-H23, 33.7 µM (inactive); in the experiment on MDA-MB-231, 20.8 µM (inactive). Moreover, the GI50 was 5.4 µM (inactive) in the experiment on MOLT-4; 22.2 µM (inactive) in the experiment with A549; 40.8 µM (inactive) with U-251; 66.1 µM (inactive) in the experiment on SK-MEL-28; 44.1 µM (inactive) with 786-0; 23.7 µM (inactive) with RXF 393. Further, the GI50 with NCI-H226 was 14.5 µM (inactive); in the experiment with COLO 205 it was 18.5 µM (inactive); in the experiment with NCI/ADR-RES it was 26.2 µM (inactive); in the experiment on SN12C, 31.3 µM (inactive); in the experiment with HOP-62, 22.3 µM (inactive); in the experiment with SF-539, 42.1 µM (inactive). In the experiment on SNB-75, the GI50 is 15.6 µM (inactive).

Take `COc1nc(C#CCCCC#N)nc(OC)n1`: the GI50 in the experiment with SK-MEL-5 is 13.3 µM (inactive); in the experiment on UACC-257 it was 18.9 µM (inactive); in the experiment on UO-31 it was 11.1 µM (inactive); in the experiment on NCI-H23, 13.8 µM (inactive); in the experiment with MDA-MB-231, 11.7 µM (inactive); with MOLT-4, 14.4 µM (inactive). Also, the GI50 with A549 was 15.8 µM (inactive); with U-251, 13.4 µM (inactive); with SK-MEL-28 it was 15.5 µM (inactive); in the experiment on 786-0 it was 11.1 µM (inactive); in the experiment with RXF 393, 15.6 µM (inactive); in the experiment with COLO 205, 29.9 µM (inactive). Also, the GI50 was 14.2 µM (inactive) in the experiment on NCI-H522; 28.5 µM (inactive) with NCI/ADR-RES; 16.4 µM (inactive) with SN12C; 24.2 µM (inactive) in the experiment on HOP-62; 20.5 µM (inactive) in the experiment with SF-539; 19.5 µM (inactive) in the experiment with SNB-75.

`CN(C)C(=O)C(F)(F)C(c1ccccc1)C1C(=O)N(C)C(=O)N(C)C1=O` (stereo unspecified): the GI50 in the experiment on SK-MEL-5, with UACC-257, in the experiment with HOP-92, with UO-31, in the experiment on NCI-H23 and in the experiment on MDA-MB-231 was > 100 µM (inactive) throughout. Further, the GI50 in the experiment with MOLT-4, with A549, with U-251, in the experiment on SK-MEL-28, in the experiment with 786-0 and in the experiment on RXF 393 was > 100 µM (inactive) in each case. For the same compound, the GI50 with NCI-H226, in the experiment with COLO 205, with NCI/ADR-RES, in the experiment with HOP-62 and with SNB-75 was > 100 µM (inactive) each time.

Regarding `N/C(=N\c1ccccc1)c1ccccc1N`, the GI50 in the experiment with SK-MEL-5 is > 100 µM (inactive); in the experiment with UACC-257, > 100 µM (inactive); in the experiment on HOP-92, 2.51 µM (inactive); in the experiment on UO-31, > 100 µM (inactive); in the experiment with NCI-H23 it was > 100 µM (inactive); with MDA-MB-231, > 100 µM (inactive). Besides, the GI50 in the experiment with MOLT-4 is > 100 µM (inactive); with A549 it was > 100 µM (inactive); with U-251, > 100 µM (inactive); in the experiment on SK-MEL-28, 19.6 µM (inactive); in the experiment on 786-0, > 100 µM (inactive); in the experiment with RXF 393 it was > 100 µM (inactive). The GI50 is > 100 µM (inactive) in the experiment on NCI-H226; > 100 µM (inactive) in the experiment with COLO 205; > 100 µM (inactive) with NCI/ADR-RES; > 100 µM (inactive) in the experiment on HOP-62; 80.2 µM (inactive) in the experiment with SNB-75.

For `CCOC(=O)/C1=C(\C)N(Cc2ccccc2)C(=O)c2ccccc2C(=O)c2c(OC(C)=O)ccc(OC(C)=O)c21`, the GI50 is 33.3 µM (inactive) with SK-MEL-5; 61.9 µM (inactive) in the experiment on UACC-257; 12.7 µM (inactive) in the experiment on HOP-92; > 100 µM (inactive) with UO-31; > 100 µM (inactive) in the experiment on MDA-MB-231; 59.7 µM (inactive) with MOLT-4. The GI50 is 36.4 µM (inactive) with A549; > 100 µM (inactive) with U-251; > 100 µM (inactive) with SK-MEL-28; > 100 µM (inactive) in the experiment with 786-0; 33.2 µM (inactive) in the experiment with RXF 393; 78.7 µM (inactive) with COLO 205. For the same compound, the GI50 with NCI-H522 was 34.9 µM (inactive); in the experiment on NCI/ADR-RES, 31.8 µM (inactive); with SN12C, > 100 µM (inactive); in the experiment with HOP-62 it was 40.6 µM (inactive); with SF-539 it was > 100 µM (inactive); with SNB-75, > 100 µM (inactive).

As to `Cc1cc2c(cc1Cl)SC(NNC(=O)c1ccccc1)=NS2(=O)=O`, the GI50 with SK-MEL-5, in the experiment on UACC-257, in the experiment with NCI-H23, in the experiment on MDA-MB-231, in the experiment with MOLT-4 and in the experiment on A549 was > 10 µM (inactive) throughout. Moreover, the GI50 in the experiment on U-251, in the experiment with SK-MEL-28, in the experiment on 786-0, with RXF 393, in the experiment with NCI-H226 and with COLO 205 was > 10 µM (inactive) throughout. Besides, the GI50 in the experiment on NCI-H522, with NCI/ADR-RES, in the experiment with SN12C, in the experiment with HOP-62, in the experiment on SF-539 and with SNB-75 was > 10 µM (inactive) throughout.

On to `O=C(c1ccccc1)N1OCCC1Nc1ccc(Br)cc1` (stereo unspecified), for which the GI50 in the experiment with SK-MEL-5 is 6.97 µM (inactive); in the experiment with UACC-257, > 10 µM (inactive); in the experiment with UO-31 it was 1.87 µM (inactive); in the experiment with NCI-H23, > 10 µM (inactive); with MDA-MB-231 it was > 10 µM (inactive); with MOLT-4 it was 4 µM (inactive). The GI50 is 3.64 µM (inactive) with A549; > 10 µM (inactive) in the experiment on SK-MEL-28; > 10 µM (inactive) with 786-0; > 10 µM (inactive) in the experiment on RXF 393; > 10 µM (inactive) in the experiment with NCI-H226; 1.81 µM (inactive) with COLO 205. The GI50 in the experiment with NCI-H522 was > 10 µM (inactive); in the experiment on NCI/ADR-RES, 5.43 µM (inactive); with SN12C, > 10 µM (inactive); in the experiment with HOP-62 it was 7.57 µM (inactive); in the experiment on SF-539, 2.08 µM (inactive); with SNB-75, > 10 µM (inactive).

For `O=C1CC(Cc2n[nH]c3c2CCCC3)CC(=O)N1`, the GI50 in the experiment with SK-MEL-5, with UACC-257, with HOP-92, with NCI-H23, with MDA-MB-231 and in the experiment with MOLT-4 was > 100 µM (inactive) in each case. Also, the GI50 in the experiment with A549, in the experiment with U-251, with SK-MEL-28, with 786-0, in the experiment on RXF 393 and with NCI-H226 was > 100 µM (inactive) in each case. The GI50 in the experiment with COLO 205, with NCI/ADR-RES, in the experiment on SN12C, with HOP-62, in the experiment on SF-539 and with SNB-75 was > 100 µM (inactive) throughout.

As for `O=S(=O)(c1ccccc1)C1CN(Cc2ccccc2)CCN(Cc2ccccc2)C1`, the GI50 was 18.6 µM (inactive) in the experiment on SK-MEL-5; 26.6 µM (inactive) with UACC-257; 19.3 µM (inactive) in the experiment on UO-31; 15.7 µM (inactive) with NCI-H23; 39.2 µM (inactive) with MDA-MB-231; 7.24 µM (inactive) with MOLT-4. Besides, the GI50 in the experiment on A549 is 39.7 µM (inactive); with U-251 it was 33 µM (inactive); in the experiment on SK-MEL-28 it was > 71 µM (inactive); with 786-0, > 74 µM (inactive); in the experiment on RXF 393, 10.4 µM (inactive); with NCI-H226 it was > 53.6 µM (inactive). The GI50 with COLO 205 was 30 µM (inactive); in the experiment on NCI-H522, 8 µM (inactive); in the experiment on NCI/ADR-RES it was 17.9 µM (inactive); in the experiment on SN12C, 32.4 µM (inactive); in the experiment on HOP-62 it was > 76.2 µM (inactive); in the experiment with SF-539, 77.6 µM (inactive). Further, the GI50 in the experiment with SNB-75 was 61.5 µM (inactive).

Consider `Cc1noc(-c2ccc(C(=O)O)[nH]2)c1Br`, for which the GI50 with SK-MEL-5 is > 100 µM (inactive); in the experiment with UACC-257 it was > 100 µM (inactive); with HOP-92, 12.2 µM (inactive); in the experiment on UO-31, 71.6 µM (inactive); in the experiment on NCI-H23, 55.6 µM (inactive); with MDA-MB-231, > 100 µM (inactive). Moreover, the GI50 is > 100 µM (inactive) in the experiment on MOLT-4; 45.2 µM (inactive) in the experiment on A549; 34.8 µM (inactive) in the experiment with U-251; > 100 µM (inactive) in the experiment with SK-MEL-28; 29 µM (inactive) with 786-0; 23.4 µM (inactive) with RXF 393. Also, the GI50 in the experiment on COLO 205 was 26.1 µM (inactive); in the experiment on NCI-H522, 39.7 µM (inactive); in the experiment with NCI/ADR-RES, 50.5 µM (inactive); with HOP-62, 22.5 µM (inactive); with SNB-75, 26.6 µM (inactive).
